# Measurements reported in a melting point compilation (Tetko et al.; mined from patent text by program, amines drawn as free bases though some values may be those of a salt).
row,Structure (SMILES),melting point
1,C=C(C)c1cccc2c1nc(-c1c(F)cccc1F)n2Cc1c(F)cccc1F,156 to 158 °C
2,Nc1nc(SC2C=CCCC2)c2ncn(C3C=CC(CO)C3)c2n1 (stereo not drawn),138 to 140 °C
3,COCCOc1ccc(/C=C/C(=O)O)c(NC(=O)c2ccc(Cl)cc2Cl)c1,243 to 245 °C
4,CC(=O)C1CCC2C3CCC4CC(O)(c5ccccc5)CCC4(C)C3CCC12C (stereo not drawn),182 to 184 °C
5,CS(=O)(=O)c1ncnn1C[C@]1(c2ccccc2Cl)O[C@@H]1c1ccc(Cl)cc1Cl (relative stereo),129 to 133 °C
6,O=C(c1ccc(F)cc1)C1CCN(CCCn2c(=O)[nH]c(=O)c3ccccc32)CC1,193 °C
7,Fc1ccc2c(C3CCN(CC4COc5ccccc5O4)CC3)noc2c1 (stereo not drawn),86 to 87 °C
8,CCOC(=O)c1c(C)nc2c(cnn2CCOC)c1N,82 to 85 °C
9,CCOC(=O)c1cn(CCO)c2c(F)c(F)c(F)cc2c1=O,175 to 177 °C
10,COc1cc(Nc2nccc(-c3ccc(NCCCO)cc3)n2)cc(OC)c1OC,86 to 90 °C
11,CCS(=O)c1ccccc1S(=O)(=O)NC(=O)Nc1nc(OC)nc(OC)n1 (stereo not drawn),165 °C
12,O=C(NO)c1ccc(C(=O)NOCCCc2ccccc2)cc1,179 to 181 °C
13,CCc1cc(C(=O)c2ccccc2Cl)c(-n2c(C)nnc2CNC(=O)c2ccc(Cl)c(Cl)c2)s1,151 to 152 °C
14,O=C(O)c1cccc2c(-c3ccccc3)c([N+](=O)[O-])oc12,271 to 272 °C
15,CCOC(=O)C=C(C)c1ccc([N+](=O)[O-])cc1,71 to 74 °C
16,CCOC(=O)c1cn(C2CC2)c2c(F)c(N3CC(OS(C)(=O)=O)C3)c(F)cc2c1=O,191 to 193 °C
17,CC1(C)Oc2ccc(C#N)cc2[C@@H](n2cnccc2=O)[C@@H]1O (relative stereo),202 to 203 °C
18,O=c1oc(-c2ccc(C(F)(F)F)cc2)nc2cc(F)ccc12,137 to 139 °C
19,CC(=O)CCCCCCCc1ccc(O)c(O)c1,73 to 75 °C
20,Cc1cc(=O)n2nc(SCc3ccc(Cl)cc3)sc2n1,138 to 140 °C
21,C[C@@H]1CN(C(=O)[C@@](C)(O)C(F)(F)F)[C@@H](C)CN1S(=O)(=O)c1ccc(C#N)cc1,186 to 187 °C
22,COC1CN=C(N2CCN(c3ccc(O)cc3)CC2)S1 (stereo not drawn),166 °C
23,CC(C)(C#N)c1cc(C(C)(C)C#N)cc(C(C)(C)n2cncn2)c1,185 to 188 °C
24,CCOC(=O)c1cn(C)c2cnc3c(F)c(Cl)c(N4CCN(c5ccc(C)c(F)c5)CC4)cc3c2c1=O,350 °C
25,COc1ccc(N2C(=O)N(C(C)CO)c3nc(Nc4ccccc4)ncc3C2C)cc1 (stereo not drawn),165 to 180 °C

row,Structure (SMILES),melting point
1,CCc1nn(CCO)c(CC)c1Oc1cc(-n2cccn2)cc(-n2cccn2)c1,108 to 110 °C
2,COC(=O)c1ccc(O)c(C(=O)CC(=O)c2ccccc2OCc2ccccc2)c1,95 to 97 °C
3,COc1ccc(N2CCOCC2)c2sc(C(=O)O)nc12,99 to 100 °C
4,CC(C)(C(=O)NCCn1ccc2ncnc(Nc3ccc(Oc4cccc(C(F)(F)F)c4)c(Cl)c3)c21)S(C)(=O)=O,167 to 168 °C
5,CCCc1c(OCC(O)CS(=O)(=O)c2ccc(C(=O)CCC(=O)O)cc2F)ccc(C(C)=O)c1O (stereo not drawn),96 to 99 °C
6,OCC(CO)Cc1cccc(Br)c1,61 to 63 °C
7,C=CC(=O)OCCCCCCOc1ccc(-c2cccc(F)c2F)cc1,45.6 to 46.8 °C
8,Cc1ccccc1C(=O)NCN1CCN(c2cccc(C#N)c2)CC1,156 to 159 °C
9,CCOc1ccc(-c2nc(-c3cc(CCO)c(O)c(C(=O)OC)c3)cs2)cc1OCC,113 to 114 °C
10,CN(C(=O)c1ccccc1)C1CCC(=O)CC1,126 to 128 °C
11,CNCc1ccc(C2CCN(c3cc4c(cc3F)c(=O)c(C(=O)O)cn4C3CC3)C2)cc1 (stereo not drawn),235 to 237 °C
12,Cc1[nH]c(=O)n(C(C)C)c1-c1ccc(C2CCCCC2)cc1,274 °C
13,COc1ccc(-n2c(-c3ccc([N+](=O)[O-])cc3)nnc2C(C)O)cc1 (stereo not drawn),140 °C
14,NC(=O)N1C(=O)C(=C(OC(=O)c2ccccn2)c2cccs2)c2cc(F)c(Cl)cc21,184 to 185 °C
15,COc1ccc(-c2c(Cl)c(CN3CCCCC3=O)nc3sc4c(c23)CCN(Cc2ccccc2)C4)cc1OC,113 to 114 °C
16,C=CCNc1nc(NNC(C)(C)C)c2scc(C)c2n1,105 to 107 °C
17,O=c1[nH]c(=Cc2ccc(OCc3ccccc3)cn2)c(=O)[nH]c1=Cc1ccccn1,248 to 250 °C
18,CN1CCCC1=NCCSc1c[nH]c2ccccc12,144 to 146 °C
19,Cc1nc2c(N)nc3ccccc3c2n1CCCCNS(C)(=O)=O,229 to 230 °C
20,FC(F)(F)Sc1cn(-c2c(Cl)cc(C(F)(F)F)cc2Cl)c(Cl)n1,112 °C
21,C[C@@H]1c2sccc2CN(C)[C@H]1CCNC(=O)c1ccc(NS(C)(=O)=O)cc1 (relative stereo),67 to 74 °C
22,O=C(C=Cc1ccccc1)NN1CC(=O)NC1=O,276 to 278 °C
23,CCOP(=O)(OCC)Oc1ccc(/C=C2/C(=O)Nc3cc(OC)c(OC)cc32)cc1,139 to 141 °C
24,CC(=O)N1N=C(c2ccc([N+](=O)[O-])c(C)c2)c2cc3c(cc2C=C1C)OCO3,115 to 116 °C
25,COC(=O)c1ccc(C(C)(O)c2cc3cc(C(F)(F)F)ccc3n2S(=O)(=O)c2cccc(C(C)(C)C)c2)cc1 (stereo not drawn),70 °C

row,Structure (SMILES),melting point
1,Cc1ncc(CN2CCc3cc(-c4cc(Cl)cc(Cl)c4)ccc3C2)c(N)n1,205 to 211 °C
2,Cc1nc2nccc(O)c2cc1Br,> 250 °C
3,Cc1nnc2n1-c1sc(CC(=O)N3CCCCC3)cc1C(c1ccccc1Cl)=NC2C (stereo not drawn),182 to 183 °C
4,C#CCn1c(=O)n(C)c2ccccc21,110 to 112 °C
5,CC(C)c1cccc(C(C)C)c1NC(=O)NS(=O)(=O)Cl,130 to 134 °C
6,CN1C(=O)CC[C@]2(C)c3ccc(-c4cnc5ccccc5n4)cc3CC[C@@H]12,129 to 135 °C
7,CC(C)(C)OC(=O)C(Nc1ccccc1)c1ccc(Cl)c(Cl)c1 (racemic),94 °C
8,CCCCOc1ccc(Cc2cc3c(cn2)COC3)cc1,213 to 215 °C
9,CC(=O)Nc1cc(NC(C)=C2C(=O)OC(=O)C(C(C)=O)=C2O)cc([N+](=O)[O-])c1,> 270 °C
10,CN(C)C(=O)COC(=O)c1ccc(Cl)cc1OCC(=O)N(C)C,140 to 141 °C
11,CCc1nc(C)c(Cc2c(O)ccc3ccccc23)[nH]1,166 °C
12,COc1ccc(CNc2nc(SC)ncc2C(=O)NCc2ccccn2)cc1Cl,143 to 144 °C
13,CCOC(=O)NC(C)CCC1(O)c2ccccc2CCc2c(C)cccc21 (stereo not drawn),132 to 134 °C
14,COc1cnc(C(=O)O)cc1OC1CCCC1,184 to 185 °C
15,CN1C(=S)C(c2ccc(OC(F)(F)F)cc2)(c2cccc(-c3cccnc3F)c2)N=C1N (stereo not drawn),89 to 99 °C
16,Nc1cccc(OCc2ccccc2)c1N,68 °C
17,NS(=O)(=O)c1cc(C(=O)O)cc(NCc2ccc3c(c2)OCO3)c1Oc1ccccc1,229 to 230 °C
18,COCCNc1c([N+](=O)[O-])cc(C)cc1[N+](=O)[O-],75 °C
19,Cc1cccc(Nn2cnc(C)c2-c2cccc(C#N)c2)c1,138 to 140 °C
20,COc1ccc(OC(=O)c2ncn3c2[C@@H]2CCCN2C(=O)c2c(Cl)cccc2-3)cc1,210 to 211 °C
21,NCc1cccc(CNc2ncc3ncnc(Nc4ccc(F)c(Cl)c4)c3n2)c1,179 to 182 °C
22,S=c1nc(-c2ccc(Br)cc2)[nH]n1Cc1ccccc1,250 to 251 °C
23,COc1ccccc1C1(O)OC(=O)C(c2ccc3c(c2)OCO3)=C1Cc1ccc2nsnc2c1 (stereo not drawn),172 °C
24,COC(=O)C1(N(O)C(=O)Cc2c(C)cc(Cl)cc2C)CCN(OC)CC1,228 to 231 °C
25,COc1ccc(C=N[C@H]2C(O)O[C@H](CO)[C@@H](O)[C@@H]2O)cc1 (stereo partly drawn),165 °C

row,Structure (SMILES),melting point
1,CCCc1cc(O)nc(C(Cl)(Cl)Cl)n1,107 to 110 °C
2,CCn1nc(C)c(N)c1C,69 to 70 °C
3,COc1cccc(Cl)c1C(O)C(N)=O (stereo not drawn),116 to 118 °C
4,CC(C(=O)N(C)C)n1cc(Cl)c(-c2ccc(Cl)cc2)n1 (stereo not drawn),92 to 93.5 °C
5,CCCc1ccc(-c2ccc(-c3cccs3)c(F)c2)cc1,88 °C
6,COc1cc(Oc2ccc(S(C)(=O)=O)nc2)cc2cc(C3=NCC(CC(=O)NC[C@H](C)O)S3)[nH]c12 (stereo partly drawn),185 to 186 °C
7,O=C(CN1CC(O)CC1=O)Oc1ccc(Cl)c(Cl)c1Cl (stereo not drawn),84 to 86 °C
8,CC(C)(C#N)c1cc(Cn2cnnc2)cc(C(C)(C)C#N)c1,158 to 161 °C
9,CCOC(=O)CCC1=C(C#N)C(c2ccccc2Cl)c2c[nH]nc2N1 (stereo not drawn),172 to 174 °C
10,CCOC(=O)[C@H](Cn1cc(C)c(SC#N)nc1=O)NS(=O)(=O)N(C)C,158 °C
11,NC1=CC(=O)C(N)=C(CCCCCC2=C(N)C(=O)C=C(N)C2=O)C1=O,> 250 °C
12,Nc1c(-c2ccc(Oc3ccccc3)cc2)nc2ccc(C(F)(F)F)cc2c1C(=O)O,220 to 225 °C
13,OCC1=CC=C(CO)SS1,64 to 66 °C
14,CCN(CCN(C)C)c1ccc(-c2ccnc(Nc3cc(OC)c(OC)c(OC)c3)n2)cn1,90 °C
15,CC(C)(C)c1cc(I)c2c(c1)C=NS(=O)(=O)O2,130 to 134 °C
16,c1cc(N2CCCC2)ccc1CC12CC3CC(CC(C3)C1)C2,147 to 148 °C
17,CN(c1ccc(O)cc1)c1nc2cc(Cl)c(Cl)cc2nc1Cl,176 °C
18,Cc1c[nH]c(-c2ccc(F)cc2)c1-c1ccc(F)cc1,126 to 127 °C
19,O=C(CCC(=O)Oc1cc(O)cc(O)c1)Oc1cc(O)cc(O)c1,213 to 217 °C
20,CCC(C)c1ccc(-n2c(-c3cc(C)c(OCCO)c(C)c3)nc3ccccc3c2=O)cc1 (stereo not drawn),152 to 153 °C
21,COc1cc(COc2nn(Cc3ccccc3)cc2CO)ccc1OCc1nc(-c2ccco2)oc1C,104 to 105 °C
22,CCCCCc1ccc(C(=O)Nc2ccc3cc(CN4CCCC4)cnc3c2C)cc1,121 °C
23,O=C(O)CCC(CCNCCc1ccccc1)n1nc(Cc2ccc(F)cc2)c2ccccc2c1=O (stereo not drawn),190 to 191 °C
